Data reported in patent EP4653437A2 (Innovo Therapeutics Inc., priority 2023, dated 2024).

How the values were obtained:
human 15-PGDH = biological target: T1, human 15-PGDH (Homo sapiens, UniProt P15428); experiment: Evaluation of 15-PGDH inhibitory activity (fluorescence enzyme assay, NAD+/PGE2); type: biochemical; conditions: human 15-PGDH enzyme, fluorescence Vmax
T1 construct: purchased R&D System 5660-DH
T1 sequence (P15428 1-266): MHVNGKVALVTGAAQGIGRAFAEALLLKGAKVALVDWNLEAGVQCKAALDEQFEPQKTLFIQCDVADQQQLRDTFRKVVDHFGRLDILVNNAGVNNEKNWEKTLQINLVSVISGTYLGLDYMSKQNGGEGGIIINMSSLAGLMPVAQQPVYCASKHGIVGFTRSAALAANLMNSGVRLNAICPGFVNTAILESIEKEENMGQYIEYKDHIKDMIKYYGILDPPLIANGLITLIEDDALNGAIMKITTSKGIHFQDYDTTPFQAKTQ
Description: 15-PGDH inhibition activity of Example compounds was measured as follows. 6.7 ng of human 15-PGDH (R&D System# 5660-DH) enzyme (10 µL) was added to a black 96 well plate, 60 µL of buffer (50 mM Tris-HCl, pH 7.5, 0.01% Tween 20) was added, and 10 µL of 200 µM β-Nicotinamide adenine dinucleotide sodium salt (Sigma, Cat# N0632-5G) was added. 10 µL of (10x) compound solution in DMSO was added and reacted for 10 minutes at room temperature.

A549 cells = experiment: Measurement of PGE2-increasing activity in A549 cells (IL-1β stimulated, PGE2 quantified in supernatant); type: cell-based; conditions: Homo sapiens, 24 h; concentration of 1 µM of each compound; IL-1β treated A549 cells; read-out: Increased PGE2 production in A549 cells
In short: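 A549 cells grown 24 h in F12K with 10% FBS, then switched to serum-free medium with or without IL-1β and compound (0.1% DMSO final). After 24 h at 37 °C, 5% CO2, supernatant PGE2 quantified by immunoassay.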

SMILES	IC50 (human 15-PGDH) [nM]	fold induction at 1 µM (A549 cells)
O=C(Nc1cncc(-c2cccc3c(C(=O)N4CCCCC4)cnn23)c1)c1cncc(F)c1 [Example 335, 5-fluoro-N-(5-(3-(piperidine-1-carbonyl)pyrazolo[1,5-a]pyridin-7-yl)pyridin-3-yl)nicotinamide]	≤ 100	> 1.5
CC1CCCN(C(=O)c2cnn3c(-c4ccc(F)nc4)cccc23)C1 (centres unmarked) [Example 336, (7-(6-fluoropyridin-3-yl)pyrazolo[1,5-a]pyridin-3-yl)(3-methylpiperidin-1-yl)methanone]	≤ 100	> 1.5
CCC1CCCN(C(=O)c2cnn3c(-c4ccc(F)nc4)cccc23)C1 (centres unmarked) [Example 337, (3-ethylpiperidin-1-yl)(7-(6-fluoropyridin-3-yl)pyrazolo[1,5-a]pyridin-3-yl)methanone]	≤ 100	> 1.5
O=C(c1cnn2c(-c3ccc(F)nc3)cccc12)N1CCCC(C(F)(F)F)C1 (centres unmarked) [Example 338, (7-(6-fluoropyridin-3-yl)pyrazolo[1,5-a]pyridin-3-yl)(3-(trifluoromethyl)piperidin-1-yl)methanone]	≤ 100	> 1.5
O=C(c1cnn2c(-c3ccc(N4CCOC4=O)nc3)cccc12)N1CCCC(C(F)(F)F)C1 (centres unmarked) [Example 339, 3-(5-(3-(3-(trifluoromethyl)piperidine-1-carbonyl)pyrazolo[1,5-a]pyridin-7-yl)pyridin-2-yl)oxazolidin-2-one]	≤ 100	> 1.5
O=C(c1cnn2c(-c3ccc(N(Cc4ccccc4[N+](=O)[O-])C(=O)c4cccnc4)cc3)cccc12)N1CCCCC1 [Example 340, N-(2-nitrobenzyl)-N-(4-(3-(piperidine-1-carbonyl)pyrazolo|[1,5-a]pyridin-7-yl)phenyl)nicotinamide]	≤ 100	> 1.5
O=C(c1cnn2c(-c3cc(F)cc(-c4ncon4)c3)cccc12)N1CCCCC1 [Example 341, (7-(3-fluoro-5-(1,2,4-oxadiazol-3-yl)phenyl)pyrazolo[1,5-a]pyridin-3-yl)(piperidin-1-yl)methanone]	≤ 100	> 1.5
O=C(c1cnn2c(-c3cc(-c4ncon4)cc([N+](=O)[O-])c3)cccc12)N1CCCCC1 [Example 342, (7-(3-nitro-5-(1,2,4-oxadiazol-3-yl)phenyl)pyrazolo[1,5-a]pyridin-3-yl)(piperidin-1-yl)methanone]	≤ 100	> 1.5
Cc1nc(-c2cc(N)cc(-c3cccc4c(C(=O)N5CCCCC5)cnn34)c2)no1 [Example 343, (7-(3-amino-5-(5-methyl-1,2,4-oxadiazol-3-yl)phenyl)pyrazolo[1,5-a]pyridin-3-yl)(piperidin-1-yl)methanone]	≤ 100	> 1.5
Nc1cnn(-c2ccc(-c3cccc4c(C(=O)N5CCCCC5)cnn34)cn2)c1 [Example 344, (7-(6-(4-amino-1H-pyrazol-1-yl)pyridin-3-yl)pyrazolo[1,5-a]pyridin-3-yl)(piperidin-1-yl)methanone]	≤ 100	> 1.5
O=C(c1cnn2c(-c3ccc(-c4cn[nH]c4)cc3)cccc12)N1CCCCC1 [Example 346, 1-piperidyl-[7-[4-(1H-pyrazol-4-yl)phenyl]pyrazolo[1,5-a]pyridin-3-yl]methanone]	≤ 100	> 1.5
O=C(c1cnn2c(-c3ccc(-c4ccsc4)cc3)cccc12)N1CCCCC1 [Example 347, 1-piperidyl-[7-[4-(3-thienyl)phenyl]pyrazolo[1,5-a]pyridin-3-yl]methanone]	≤ 100	< 1.5
Cc1nnc(-c2ccc(-c3cccc4c(C(=O)N5CCCCC5)cnn34)cc2)o1 [Example 348, [7-[4-(5-methyl-1,3,4-oxadiazol-2-yl)phenyl]pyrazolo[1,5-a]pyridin-3-yl]-(1-piperidyl)methanone]	≤ 100	> 1.5
